From ChEMBL document CHEMBL3046335, “Prediction of anti-HIV activity of imidoyl thioureas: QSAR approach” (Med Chem Res, 2009) come the findings set out here.

For orientation: logP means the decadic logarithm of the partition coefficient of the neutral form, usually between octanol and water. A low value points to lower lipophilicity.

The nature of one data set: physchem. The following applies: octanol/water.
Data set [1] has as its system Human immunodeficiency virus 1. Nature of the data set: microbe, parasite or virus in culture. Particulars: Human immunodeficiency virus 1, read-out: pIC50 (converted).
Description: Antiviral activity against wild type Human immunodeficiency virus 1

Description for physchem: Octanol-water partition coefficient, log P of the compound

In the case of `N#Cc1cccc(NC(=S)NC(=N)Cc2c(Cl)cccc2Cl)c1`, the logP in the data set “physchem” was found to be 3.7. The IC50 in data set [1] is 126 nM. The like results for `N=C(Cc1c(Cl)cccc1Cl)NC(=S)Nc1ccc(Cl)cc1` were, in that order, 4.19 and 13 nM. For `N#Cc1ccc(NC(=S)NC(=N)c2c(Cl)cccc2Cl)cc1` the same measures were 5.46 and 43.7 nM. As for `N#Cc1ccc(NC(=S)NC(=N)Cc2ccccc2)cc1`, in “physchem”, the logP was 2.67. The IC50 in data set [1] was 380 nM. For `N#Cc1ccc(NC(=S)NC(=N)CCc2c(Cl)cccc2Cl)cc1` the same measures were 5.79 and 525 nM.

In turn, `N#Cc1ccc(NC(=S)NC(=N)Cc2c(Cl)cccc2Cl)cc1` showed a logP in “physchem” of 4.83. In data set [1], the IC50 was 126 nM. The like results for `COc1ccccc1CC(=N)/N=C(\S)Nc1ccc(C#N)cc1` were, in that order, 2.42 and 30 nM. The like results for `N#Cc1ccc(NC(=S)NC(=N)Cc2ccc(Cl)cc2)cc1` were, in that order, 3.19 and 148 nM. For the molecule `N#Cc1ccc(NC(=S)NC(=N)C2(c3c(Cl)cccc3Cl)CC2)cc1`, the logP in the data set “physchem” came to 6.11. Further, the IC50 in data set [1] is 676 nM.

`C/N=C(/Cc1c(Cl)cccc1Cl)NC(=O)Nc1ccc(C#N)cc1` yielded a logP in the data set “physchem” of 5.96. Besides, the IC50 in data set [1] is 214 nM.

In the case of `N=C(Cc1c(Cl)cccc1Cl)NC(=S)Nc1ccc(Cl)cc1Cl`, the logP in the data set “physchem” amounted to 4.7. Besides, in data set [1], the IC50 was 347 nM.

In turn, `N#Cc1ccc(NC(=S)NC(=N)Cc2ccc(Cl)cc2Cl)cc1` displayed a logP in “physchem” of 3.7. The IC50 in data set [1] is 7 nM.

As for `CN/C(Cc1c(Cl)cccc1Cl)=N\C(S)=N\c1ccc(C#N)cc1`, in the data set “physchem”, the lipophilicity (logP) was 6.75. Besides, the IC50 in data set [1] was 77.4 nM. For the molecule `N#Cc1ccc(NC(=O)NC(=N)Cc2c(Cl)cccc2Cl)cc1`, in “physchem”, the logP is 3.71. The IC50 in data set [1] was 15 nM. The like results for `N#Cc1ccc(NC(=S)NC(=N)Cc2ccccc2Cl)cc1` were, in that order, 3.19 and 14 nM. The like results for `N#C/N=C(\NCCc1ccc(C#N)cc1)N/C(Cc1c(Cl)cccc1Cl)=N\c1ccccc1` were, in that order, 5.98 and 158 nM. In the data set “physchem”, `CN(C)C(Cc1c(Cl)cccc1Cl)NC(=N)Nc1ccc(C#N)cc1` (stereo not drawn) came in with a logP of 7.06. In addition, the IC50 in data set [1] is 757 nM.

In the case of `N=C(Cc1c(Cl)cccc1Cl)NC(=S)NCc1ccc(Cl)cc1`, in the data set “physchem”, the logP is 5.97. Also, the IC50 in data set [1] is 692 nM. The like results for `N#Cc1ccc(N/C(S)=N/C(=N)Cc2c(F)cccc2F)cc1` were, in that order, 2.95 and 6 nM.

The molecule `N=C(Cc1c(Cl)cccc1Cl)NC(=S)Nc1ccccc1` returned a logP in “physchem” of 3.67. For the same molecule, the IC50 in data set [1] is 123 nM. Molecule `Cc1ccccc1CC(=N)/N=C(\S)Nc1ccc(C#N)cc1` came in with a logP in “physchem” of 3.13. The IC50 in data set [1] is 26 nM. Turning to `N=C(Cc1c(Cl)cccc1Cl)NC(=S)NCCc1ccc(Cl)cc1`, the logP in “physchem” was determined as 6.22. Also, the IC50 in data set [1] was 617 nM. The like results for `N#Cc1ccc(NC(=S)NC(=N)Cc2c(Cl)ccc(Cl)c2Cl)cc1` were, in that order, 4.22 and 5 nM. For `N#Cc1ccc(NC(=S)NC(=N)Cc2cccc(Cl)c2)cc1` the same measures were 3.19 and 67.9 nM. For `CCN/C(Cc1c(Cl)cccc1Cl)=N\C(S)=N\c1ccc(C#N)cc1` the same measures were 5.77 and 195 nM. With `CC(C(=N)/N=C(\S)Nc1ccc(C#N)cc1)c1c(Cl)cccc1Cl` (stereo not drawn), the logP in the data set “physchem” worked out at 5.95. For the same molecule, the IC50 in data set [1] was 158 nM. For `CN(C)C(Cc1c(Cl)cccc1Cl)/N=C(\S)Nc1ccc(C#N)cc1` (stereo not drawn), in the data set “physchem”, the logP is 5.64.
